Source: PubChem BioAssay (NCI)
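A five-concentration, 48-hour dose response in 96-well plates underlies each endpoint, interpolated linearly between surrounding concentrations. GI50 = concentration required for 50% inhibition of growth. TGI is the concentration that stops growth completely.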

Key:
Assay in all cases: NCI-60 cell line screen, 48 h
A498 renal = tested on: A498 renal
BT-549 breast = tested on: BT-549 breast
HCT-116 colon = tested on: HCT-116 colon
HL-60(TB) leukemia = tested on: HL-60(TB) leukemia
HOP-62 NSCLC = tested on: HOP-62 NSCLC
MALME-3M melanoma = tested on: MALME-3M melanoma
NCI-H460 lung = tested on: NCI-H460 lung
SF-539 CNS = tested on: SF-539 CNS
T-47D breast = tested on: T-47D breast
HCC-2998 colon = tested on: HCC-2998 colon

With `Cn1c(=O)c2c(nc(N/N=C/c3ccccc3C(=O)O)n2C)n(C)c1=O` the TGI (A498 renal) was over 100 µM, the TGI (BT-549 breast) was over 100 µM and the TGI (HCT-116 colon) was over 100 µM. The TGI (HL-60(TB) leukemia) was over 100 µM, the TGI (HOP-62 NSCLC) was over 100 µM and the TGI (MALME-3M melanoma) was over 100 µM. For the same compound, the TGI (NCI-H460 lung) was over 100 µM, the TGI (SF-539 CNS) was over 100 µM and the TGI (T-47D breast) was over 100 µM.
With `COc1ccc(-c2cc(/C=C/C(=O)c3ccc(N)cc3)[nH]n2)cc1` the GI50 (A498 renal) was 2.03 µM, the TGI (A498 renal) was 4.95 µM and the GI50 (BT-549 breast) was 1.74 µM. The TGI (BT-549 breast) was 4.78 µM, the GI50 (HCC-2998 colon) was 1.83 µM and the TGI (HCC-2998 colon) was 3.36 µM. The GI50 (HL-60(TB) leukemia) was 1.43 µM, the TGI (HL-60(TB) leukemia) was 7.71 µM and the GI50 (HOP-62 NSCLC) was 2.8 µM. The TGI (HOP-62 NSCLC) was 7.49 µM, the GI50 (MALME-3M melanoma) was 2.18 µM and the TGI (MALME-3M melanoma) was 6.22 µM. The GI50 (NCI-H460 lung) was 2.07 µM, the TGI (NCI-H460 lung) was 4.95 µM and the GI50 (SF-539 CNS) was 1.47 µM. For the same compound, the TGI (SF-539 CNS) was 3.48 µM, the GI50 (T-47D breast) was 1.47 µM and the TGI (T-47D breast) was 9.77 µM.
`O=C(O)c1ccccc1NCn1c(=S)sc2ccccc21` showed a TGI (A498 renal) of over 100 µM, a TGI (BT-549 breast) of over 100 µM and a TGI (HCT-116 colon) of over 100 µM. It also gave a TGI (HL-60(TB) leukemia) of 38 µM, a TGI (HOP-62 NSCLC) of over 100 µM and a TGI (MALME-3M melanoma) of over 100 µM. It also gave a TGI (NCI-H460 lung) of 48.5 µM, a TGI (SF-539 CNS) of 48.9 µM and a TGI (T-47D breast) of over 100 µM.
With `NC(=O)/C(=C/n1cnc(-c2cc(C(F)(F)F)cc(C(F)(F)F)c2)n1)c1cncnc1` the GI50 (A498 renal) was 0.0848 µM, the TGI (A498 renal) was 1.26 µM and the GI50 (BT-549 breast) was 0.12 µM. The TGI (BT-549 breast) was 2.98 µM, the GI50 (HCC-2998 colon) was 0.74 µM and the TGI (HCC-2998 colon) was 5.34 µM. It also gave a GI50 (HCT-116 colon) of 0.162 µM, a TGI (HCT-116 colon) of 4.95 µM and a GI50 (HL-60(TB) leukemia) of 0.0562 µM. The TGI (HL-60(TB) leukemia) was 2.96 µM, the GI50 (HOP-62 NSCLC) was 1.06 µM and the TGI (HOP-62 NSCLC) was 17.2 µM. The GI50 (MALME-3M melanoma) was 0.256 µM, the TGI (MALME-3M melanoma) was 9.03 µM and the GI50 (NCI-H460 lung) was 0.187 µM. The TGI (NCI-H460 lung) was 5.61 µM, the GI50 (SF-539 CNS) was 0.0806 µM and the TGI (SF-539 CNS) was 1.45 µM. For the same compound, the GI50 (T-47D breast) was 0.116 µM and the TGI (T-47D breast) was 11.8 µM.
`O=NNc1ccc(S(=O)(=O)c2ccc3ccccc3c2)cn1` gave a TGI (A498 renal) of over 100 µM, a TGI (BT-549 breast) of over 100 µM and a TGI (HCT-116 colon) of over 100 µM. For the same compound, the TGI (HL-60(TB) leukemia) was over 100 µM, the TGI (HOP-62 NSCLC) was over 100 µM and the TGI (MALME-3M melanoma) was over 100 µM. It also gave a TGI (NCI-H460 lung) of over 100 µM, a TGI (SF-539 CNS) of over 100 µM and a TGI (T-47D breast) of over 100 µM.
`O=C1Nc2ccc3c(c2/C1=C\c1cc2c(cc1Br)OCO2)OCO3` was tested, and the GI50 (A498 renal) was 0.287 µM, the TGI (A498 renal) was 1.08 µM and the GI50 (BT-549 breast) was 0.71 µM. It also gave a TGI (BT-549 breast) of 39.5 µM, a GI50 (HCC-2998 colon) of 1.65 µM and a TGI (HCC-2998 colon) of over 100 µM. It also gave a GI50 (HCT-116 colon) of 0.376 µM, a TGI (HCT-116 colon) of 1.72 µM and a GI50 (HL-60(TB) leukemia) of 0.271 µM. It also gave a TGI (HL-60(TB) leukemia) of 2.35 µM, a GI50 (HOP-62 NSCLC) of 0.393 µM and a TGI (HOP-62 NSCLC) of 2.07 µM. For the same compound, the GI50 (MALME-3M melanoma) was 0.423 µM, the TGI (MALME-3M melanoma) was 4.16 µM and the GI50 (NCI-H460 lung) was 0.35 µM. The TGI (NCI-H460 lung) was 1.35 µM, the GI50 (SF-539 CNS) was 0.311 µM and the TGI (SF-539 CNS) was 1.12 µM. For the same compound, the GI50 (T-47D breast) was 0.969 µM and the TGI (T-47D breast) was 6.58 µM.
For `COc1ccccc1C(=O)N(Cc1ccccc1)c1ccc(Cl)c(C(=O)OC(C)C)c1`, the TGI (A498 renal) was over 100 µM, the TGI (BT-549 breast) was over 100 µM and the TGI (HCC-2998 colon) was over 100 µM. For the same compound, the TGI (HCT-116 colon) was over 100 µM, the TGI (HL-60(TB) leukemia) was 43.6 µM and the TGI (HOP-62 NSCLC) was 85.8 µM. The TGI (MALME-3M melanoma) was 85.9 µM, the TGI (NCI-H460 lung) was over 100 µM and the TGI (SF-539 CNS) was over 100 µM. It also gave a TGI (T-47D breast) of 78.7 µM.
`CCOC(=O)c1c(NC(=O)c2ccc(Cl)cc2)sc2c(CN(C)C)c(O)ccc12` showed a GI50 (A498 renal) of 6.09 µM, a TGI (A498 renal) of 19.9 µM and a GI50 (BT-549 breast) of 13.4 µM. The TGI (BT-549 breast) was over 100 µM, the GI50 (HCC-2998 colon) was 1.83 µM and the TGI (HCC-2998 colon) was 3.84 µM. It also gave a GI50 (HCT-116 colon) of 6.96 µM, a TGI (HCT-116 colon) of 40.8 µM and a GI50 (HOP-62 NSCLC) of 5.58 µM. The TGI (HOP-62 NSCLC) was 27.1 µM, the GI50 (MALME-3M melanoma) was 1.85 µM and the TGI (MALME-3M melanoma) was 3.86 µM. It also gave a GI50 (NCI-H460 lung) of 4.71 µM, a TGI (NCI-H460 lung) of over 100 µM and a GI50 (SF-539 CNS) of 5.2 µM. For the same compound, the TGI (SF-539 CNS) was 18.4 µM, the GI50 (T-47D breast) was 4.88 µM and the TGI (T-47D breast) was over 100 µM.
Compound `C[C@@H]1CCc2ncc(F)cc2[C@H]2CCCN2c2ccn3ncc(c3n2)C(=O)N1` has a GI50 (A498 renal) of 12.9 µM, a TGI (A498 renal) of 42.2 µM and a GI50 (BT-549 breast) of 69.8 µM. The TGI (BT-549 breast) was over 100 µM, the GI50 (HCC-2998 colon) was over 100 µM and the TGI (HCC-2998 colon) was over 100 µM. The GI50 (HCT-116 colon) was over 100 µM, the TGI (HCT-116 colon) was over 100 µM and the GI50 (HL-60(TB) leukemia) was over 100 µM. It also gave a TGI (HL-60(TB) leukemia) of over 100 µM, a GI50 (HOP-62 NSCLC) of 60 µM and a TGI (HOP-62 NSCLC) of over 100 µM. The GI50 (MALME-3M melanoma) was over 100 µM, the TGI (MALME-3M melanoma) was over 100 µM and the GI50 (NCI-H460 lung) was over 100 µM. The TGI (NCI-H460 lung) was over 100 µM, the GI50 (SF-539 CNS) was 54.6 µM and the TGI (SF-539 CNS) was over 100 µM. It also gave a GI50 (T-47D breast) of 86.1 µM and a TGI (T-47D breast) of over 100 µM.
For `CCn1c(-c2nonc2N)nc2cnc(Oc3cccc(NC(=O)c4ccc(N(C)C)cc4)c3)cc21`, the GI50 (A498 renal) was 4.48 µM, the TGI (A498 renal) was over 25 µM and the GI50 (BT-549 breast) was 0.859 µM. It also gave a TGI (BT-549 breast) of over 25 µM, a GI50 (HCC-2998 colon) of over 25 µM and a TGI (HCC-2998 colon) of over 25 µM. For the same compound, the GI50 (HCT-116 colon) was 11.3 µM, the TGI (HCT-116 colon) was over 25 µM and the GI50 (HL-60(TB) leukemia) was over 25 µM. It also gave a TGI (HL-60(TB) leukemia) of over 25 µM, a GI50 (HOP-62 NSCLC) of over 25 µM and a TGI (HOP-62 NSCLC) of over 25 µM. The GI50 (MALME-3M melanoma) was over 25 µM, the TGI (MALME-3M melanoma) was over 25 µM and the GI50 (NCI-H460 lung) was over 25 µM. It also gave a TGI (NCI-H460 lung) of over 25 µM, a GI50 (SF-539 CNS) of 18.7 µM and a TGI (SF-539 CNS) of over 25 µM. The GI50 (T-47D breast) was 9.62 µM and the TGI (T-47D breast) was over 25 µM.
`C=C1CC[C@H]2C(C)=CC[C@H]3C(=C)C(=O)O[C@@H]3[C@@H]12` was tested, and the TGI (A498 renal) was over 100 µM, the TGI (BT-549 breast) was over 100 µM and the TGI (HCC-2998 colon) was over 100 µM. It also gave a TGI (HCT-116 colon) of over 100 µM, a TGI (HL-60(TB) leukemia) of over 100 µM and a TGI (MALME-3M melanoma) of over 100 µM. It also gave a TGI (NCI-H460 lung) of over 100 µM, a TGI (SF-539 CNS) of over 100 µM and a TGI (T-47D breast) of over 100 µM.
In the case of `O=[N+]([O-])/C=C/c1ccc(Cl)cc1[N+](=O)[O-]`, the GI50 (A498 renal) is reported as 14.5 µM, the TGI (A498 renal) is reported as 27.8 µM and the GI50 (BT-549 breast) is reported as 3.47 µM. It also gave a TGI (BT-549 breast) of 10.2 µM, a GI50 (HCC-2998 colon) of 1.85 µM and a TGI (HCC-2998 colon) of 3.41 µM. It also gave a GI50 (HCT-116 colon) of 1.86 µM, a TGI (HCT-116 colon) of 3.67 µM and a GI50 (HL-60(TB) leukemia) of 3.23 µM. The TGI (HL-60(TB) leukemia) was 14.1 µM, the GI50 (HOP-62 NSCLC) was 3.04 µM and the TGI (HOP-62 NSCLC) was 13.4 µM. It also gave a GI50 (MALME-3M melanoma) of 4.15 µM, a TGI (MALME-3M melanoma) of 16.7 µM and a GI50 (NCI-H460 lung) of 3.42 µM. It also gave a TGI (NCI-H460 lung) of 33.5 µM, a GI50 (SF-539 CNS) of 2.65 µM and a TGI (SF-539 CNS) of 5.91 µM. It also gave a GI50 (T-47D breast) of 2.48 µM and a TGI (T-47D breast) of 5.96 µM.
